Assay: Drug solubility in medium-chain triglycerides (MCT, Miglyol 812 N); SORESOS 96-well assay, miniaturized shake-flask or literature
Settings: decadic logarithm of molar solubility in MCTs (Miglyol 812 N), 24 h at room temperature; no literature source given
Method: The excipient complies with the quality specifications of the European Pharmacopoeia. The solvents used for the ultra-performance liquid chromatography (UPLC) quantification were of UPLC grade.
(b) employing a miniaturized version of the shake-flask method in 2 mL glass vials,[33] or (c) collecting data from the literature.[12],[34] Each of the employed assays involved residual solid-state screenings by powder X-ray diffraction to identify potential solid-state changes during solubility screenings.

Structure (SMILES) | log10 S [M]
Cn1ncc(C(=O)N2CCOCC2)c1C(=O)Nc1ccn2nc(-c3ccccc3)nc2c1 [RO5545965] | -3.23 M
O=C1Nc2ccc(Cl)cc2[C@@](C#CC2CC2)(C(F)(F)F)O1 [efavirenz] | -0.22 M
COc1cc(C(=O)O)ccc1NC(=O)[C@@H]1N[C@@H](CC(C)(C)C)[C@](C#N)(c2ccc(Cl)cc2F)[C@H]1c1cccc(Cl)c1F [RO5503781] | -1.68 M
COc1cc(C(F)(F)F)cc(SC)c1C(=O)N[C@@]1(c2ccccc2)C[C@@H](OC)CN(C)C1 [RO5469299] | -1.78 M
CN1CCN(c2ccc(C(=O)Nc3n[nH]c4ccc(Cc5cc(F)cc(F)c5)cc34)c(NC3CCOCC3)c2)CC1 [RO7102122] | -2.69 M
OCCOc1ccc(/C(=C(/CCCl)c2ccccc2)c2ccccc2)cc1 [ospemifene] | -1.47 M
OC(Cn1cncn1)(Cn1cncn1)c1ccc(F)cc1F [fluconazole] | -2.19 M
OC(c1cc(C(F)(F)F)nc2c(C(F)(F)F)cccc12)C1CCCCN1 (centres unmarked) [mefloquine] | -1.74 M
COc1ccc(-c2ccccc2)c2sc(NC(=O)c3ccc(F)cc3)nc12 [RO0691911] | -1.71 M
CO[C@@H](Cc1ccc(OCCc2nc(-c3ccccc3)oc2C)c2ccsc12)C(=O)O [aleglitazar] | -2.77 M
CN(C)CCCN1c2ccccc2Sc2ccc(Cl)cc21 [chlorpromazine] | -0.17 M
CC(C)/N=c1\cc2n(-c3ccc(Cl)cc3)c3ccccc3nc-2cc1Nc1ccc(Cl)cc1 [clofazimine] | -1.65 M
Cc1sc(NC(=O)C2=C(C(=O)O)CCCC2)c(-c2nc(C3CC3)no2)c1C [RO6858805] | -2.99 M
CCOC(=O)C1=C(COCCN)NC(C)=C(C(=O)OC)C1c1ccccc1Cl (centres unmarked) [amlodipine] | -1.45 M
COc1ccc(N2CCOCC2)c2sc(NC(=O)N3CCC(CO)CC3)nc12 [RO0725612] | -4.65 M
COc1ccc(C2CCOCC2)c2sc(NC(=O)N(C)C3CCC(O)CC3)nc12 (centres unmarked) [RO4518423] | -2.61 M
CCCS(=O)(=O)Nc1ccc(F)c(C(=O)c2c[nH]c3ncc(-c4ccc(Cl)cc4)cc23)c1F [RO5185426] | -3.06 M
Cc1cc(C#Cc2cn(-c3ccc(F)cc3)c(C)n2)ccn1 [RO4582939] | -1.38 M
Cc1c(Cl)cccc1Nc1ccccc1C(=O)O [tolfenamic acid] | -1.65 M
N#Cc1cc(-c2ccc(F)c(F)c2)c2c(c1)cc1n2CCNC1=O [RO6889199] | -3.08 M
Cc1cc(-c2cccc(C3=Nc4cc(C)c(C(F)(F)F)cc4NC(=O)C3)c2)ccn1 [RO4432717] | -2.89 M
Cn1nnnc1Cn1nnc2c(N3CC[C@@H](O)C3)nc(C(C)(C)C)nc21 [RO6868847] | -1.56 M
COc1ccc(N2CCOCC2)c2sc(NC(=O)N(C)[C@@H]3C[C@H]4CC[C@@H]3O4)nc12 [RO4651862] | -2.04 M
CC(C)(C)c1ccc(CN(CCc2cccc(C(F)(F)F)c2)C(=O)c2c(F)c(Cl)cc3cc[nH]c23)cc1 [RO4920902] | -1.55 M
Cc1onc(-c2ccc(F)cc2)c1COc1ccc(C(=O)N2CCS(=O)(=O)CC2)cn1 [RO5186582] | -2.53 M

Structure (SMILES) | log10 S [M]
CN1CC(=O)N2[C@H](c3ccc4c(c3)OCO4)c3[nH]c4ccccc4c3C[C@@H]2C1=O [tadalafil] | -2.99 M
COC(=O)N1CC[C@@H]2[C@@H]1CCC[C@@]2(O)C#Cc1cccc(C)c1 [RO6805580] | -1.31 M
O=C(O)c1ccccc1Nc1cccc(C(F)(F)F)c1 [flufenamic acid] | -0.68 M
C[C@@H](O[C@H]1OCCN(Cc2n[nH]c(=O)[nH]2)[C@H]1c1ccc(F)cc1)c1cc(C(F)(F)F)cc(C(F)(F)F)c1 [aprepitant] | -3.40 M
Cc1cc(-n2c(=O)[nH]c(=O)n(C)c2=O)ccc1Oc1ccc(SC(F)(F)F)cc1 [toltrazuril] | -2.35 M
CCC(CC)CC1(C(=O)Nc2ccccc2SC(=O)C(C)C)CCCCC1 [RO4607381] | -0.41 M
CCc1cc(CCN(Cc2ccc(C(C)(C)C)cc2)C(=O)c2cc(C(F)(F)F)cc(Cl)c2F)ccc1Cl [RO5132822] | -0.16 M
O=C1CCc2cc(OCCCCc3nnnn3C3CCCCC3)ccc2N1 [cilostazol] | -3.68 M
O=C(O)COC(=O)Cc1ccccc1Nc1c(Cl)cccc1Cl [aceclofenac] | -1.84 M
C/C(O)=C(\C#N)C(=O)Nc1ccc(C(F)(F)F)cc1 [teriflunomide] | -2.30 M
CCOC(=O)C1=C(C)NC(C)=C(C(=O)OCC)C1c1ccccc1/C=C/C(=O)OC(C)(C)C [lacidipine] | -2.00 M
CC(C(=O)O)c1ccc2c(c1)[nH]c1ccc(Cl)cc12 (centres unmarked) [carprofen] | -1.29 M
Cn1c(COc2cc(Cl)c(C#N)cc2C(C)(C)C)n[nH]c1=O [RO7189752] | -2.76 M
CC(C)(C)NC(=O)[C@@H]1C[C@@H]2CCCC[C@@H]2CN1C[C@@H](O)[C@H](Cc1ccccc1)NC(=O)[C@H](CC(N)=O)NC(=O)c1ccc2ccccc2n1 [saquinavir] | -3.11 M
C[C@@H](c1ncncc1F)[C@](O)(Cn1cncn1)c1ccc(F)cc1F [voriconazole] | -1.45 M
COc1ccc(N2CCOCC2)c2sc(NC(=O)c3ccnc(CN4CCCC4)c3)nc12 [RO0728617] | -3.00 M
CCC1=C(C)CN(C(=O)NCCc2ccc(S(=O)(=O)NC(=O)N[C@H]3CC[C@H](C)CC3)cc2)C1=O [glimepiride] | -4.38 M
O=C(CCc1ccc(OC(F)(F)F)cc1)N1C[C@@H]2CN(C(=O)c3ccc4[nH]nnc4c3)C[C@@H]2C1 [RO6888975] | -4.07 M
COc1ccc(N2CCOCC2)c2sc(NC(=O)N3CCC(C)(O)CC3)nc12 [RO4494351] | -3.40 M
CCOC(=O)N1CCC(=C2c3ccc(Cl)cc3CCc3cccnc32)CC1 [loratadine] | -1.21 M
CN1C(=O)N(c2c(F)cc(C#Cc3ccccc3)cc2F)C(=O)C[C@]12CCCc1ncccc12 [RO7059466] | -2.38 M
CCn1c(=O)c2c(nc(/C=C/c3ccc(OC)c(OC)c3)n2C)n(CC)c1=O [istradefylline] | -2.46 M
O=C(OCc1ccc(OC(F)(F)F)cc1)N1C[C@@H]2CN(C(=O)c3ccc4n[nH]nc4c3)C[C@@H]2C1 [RO6897779] | -3.50 M
CC[C@@H]([C@H](C)O)n1ncn(-c2ccc(N3CCN(c4ccc(OC[C@@H]5CO[C@@](Cn6cncn6)(c6ccc(F)cc6F)C5)cc4)CC3)cc2)c1=O [posaconazole] | -3.55 M
CC(C)C(=O)c1c(C(C)C)nn2ccccc12 [ibudilast] | 0.0143 M

Structure (SMILES) | log10 S [M]
Cn1cc(-c2ccc(S(=O)(=O)[C@@H]3C[C@@H](C(=O)NC4(C#N)CC4)N(C(=O)C4(C(F)(F)F)CC4)C3)c(C(F)(F)F)c2)cn1 [RO5459072] | -3.13 M
CN(C(=O)c1ccc(C#Cc2cc(F)ccc2F)cn1)C(C)(C)C [RO6806127] | -1.29 M
CNC(=O)c1ccc(N2C(=S)N(c3ccc(C#N)c(C(F)(F)F)c3)C(=O)C2(C)C)cc1F [enzalutamide] | -2.36 M
CCO[C@H](Cc1ccc2c(ccn2Cc2nc(-c3ccccc3Cl)oc2C)c1)C(=O)O [RO4552952] | -1.66 M
CC(C)C(=O)Nc1ccc([N+](=O)[O-])c(C(F)(F)F)c1 [flutamide] | -0.97 M
Cc1cc(F)ccc1-c1cc(N2CCS(=O)(=O)CC2)ncc1N(C)C(=O)C(C)(C)c1cc(C(F)(F)F)cc(C(F)(F)F)c1 [RO0728351] | -2.03 M
COc1ccc(N2CCOCC2)c2sc(NC(=O)N3CC[S+]([O-])CC3)nc12 [RO0712616] | -4.84 M
CN(C(=O)c1ncc(C#Cc2cccc(F)c2)cn1)C(C)(C)C [RO6807794] | -1.40 M
COc1ccc(N2CCOCC2)c2sc(NC(=O)c3ccc(C(F)(F)F)cc3)nc12 [RO0720004] | -1.93 M
CC(C)(C)c1ccc(CN(CCc2cc(F)cc(C(F)(F)F)c2)C(=O)c2cc(C(F)(F)F)cc(Cl)c2F)cc1 [RO5072744] | 0.0355 M
Cc1onc(-c2ccccn2)c1COc1ccc(C(=O)N2CCOCC2)cn1 [RO5234906] | -1.90 M
C#Cc1cccc(Nc2ncnc3cc(OCCOC)c(OCCOC)cc23)c1 [erlotinib] | -2.70 M
CC(C)(C)c1ccc(C(O)CCCN2CCC(C(O)(c3ccccc3)c3ccccc3)CC2)cc1 (centres unmarked) [terfenadine] | -2.05 M
Cc1cc(OCc2ccc(-c3ccc(OC(F)(F)F)cc3)nc2)ccc1OC(C)(C)C(=O)O [RO4883572] | -2.52 M
COc1ccc(CCN2CCC(Nc3nc4ccccc4n3Cc3ccc(F)cc3)CC2)cc1 [astemizole] | -2.37 M
FC(F)c1ncn2c1Cn1ncnc1-c1cc(Br)ccc1-2 [RO4938581] | -2.98 M
O=C(Nc1ccc(Cl)cn1)[C@@H]1CN(CC(F)F)C[C@H]1C(=O)Nc1ccc(-n2ccccc2=O)cc1F [RO4934067] | -2.53 M
Clc1ccc(COC(Cn2ccnc2)c2ccc(Cl)cc2Cl)c(Cl)c1 (centres unmarked) [miconazole] | -0.86 M
Cc1cc(-c2ccc(C(F)(F)F)cc2)cc(-c2cccc(-c3cccc(S(N)(=O)=O)c3)n2)n1 [RO5132673] | -2.96 M
Cc1ccc(Nc2cncnc2)c(C(=O)Nc2ccn(C)n2)n1 [RO5012841] | -2.35 M
COc1ccc(Cl)cc1S(=O)(=O)N1CCOc2c(C)cc(C(=O)Nc3ccc(CC(=O)O)cc3)cc21 [RO5114497] | -3.73 M
CC1(C)CCC(C)(C)c2cc(Cn3cccn3)c(/C=C/c3ccc(C(=O)O)cc3)cc21 [palovarotene] | -3.47 M
Cc1cc(N(C)Cc2sc(-c3ccc(C(F)(F)F)cc3)nc2C)ccc1OCC(=O)O [RO4632615] | -2.28 M
CN1C(=O)N(c2ccc(C#Cc3ccccc3)cn2)[C@@H]2CCC[C@H]21 [RO6805600] | -1.07 M
